Laboratory results as given in ChEMBL document CHEMBL1128753, “Synthesis and bioactivity of photolabile sirolimus (rapamycin) analogs” (Bioorg Med Chem Lett, 1995).
pIC50: −log10 of the molar value.

Experiments:
T-cell = assay: Tested for inhibition of T cell proliferation in the co-mitogen stimulated proliferation assay; assay type: functional, cell-based; settings: Homo sapiens
Mus musculus = assay: Mean Survival time of the graft was evaluated in murine skin allograft transplantation assay upon intraperitoneal administration of 4 mg/kg dose; assay type: functional

CO[C@H]1C[C@@H]2CC[C@@H](C)[C@@](O)(O2)C(=O)C(=O)N2CCCC[C@H]2C(=O)O[C@H]([C@H](C)C[C@@H]2CC[C@@H](O)[C@H](OC)C2)CC(=O)[C@H](C)/C=C(\C)[C@@H](OC(=O)CCCCCNc2ccc(N=[N+]=[N-])cc2[N+](=O)[O-])[C@@H](OC)C(=O)[C@H](C)C[C@H](C)/C=C/C=C/C=C/1C
pIC50 (T-cell): 8.11

CO[C@H]1C[C@@H]2CC[C@@H](C)[C@@](O)(O2)C(=O)C(=O)N2CCCC[C@H]2C(=O)O[C@H]([C@H](C)C[C@@H]2CC[C@@H](OC(=O)CCCCCCCNc3ccc(N=[N+]=[N-])cc3[N+](=O)[O-])[C@H](OC)C2)CC(=O)[C@H](C)/C=C(\C)[C@@H](O)[C@@H](OC)C(=O)[C@H](C)C[C@H](C)/C=C/C=C/C=C/1C
pIC50 (T-cell): 7.99

CO[C@H]1C[C@@H]2CC[C@@H](C)[C@@](O)(O2)C(=O)C(=O)N2CCCC[C@H]2C(=O)O[C@H]([C@H](C)C[C@@H]2CC[C@@H](OC(=O)Cc3ccc(N=[N+]=[N-])cc3)[C@H](OC)C2)CC(=O)[C@H](C)/C=C(\C)[C@@H](O)[C@@H](OC)C(=O)[C@H](C)C[C@H](C)/C=C/C=C/C=C/1C
pIC50 (T-cell): 9.00 | MST (Mus musculus): 10.7 days

CO[C@H]1C[C@@H]2CC[C@@H](C)[C@@](O)(O2)C(=O)C(=O)N2CCCC[C@H]2C(=O)O[C@H]([C@H](C)C[C@@H]2CC[C@@H](OC(=O)Cc3ccc(N=[N+]=[N-])c(I)c3)[C@H](OC)C2)CC(=O)[C@H](C)/C=C(\C)[C@@H](O)[C@@H](OC)C(=O)[C@H](C)C[C@H](C)/C=C/C=C/C=C/1C
pIC50 (T-cell): 8.52 | MST (Mus musculus): 12.7 days

CO[C@H]1C[C@@H]2CC[C@@H](C)[C@@](O)(O2)C(=O)C(=O)N2CCCC[C@H]2C(=O)O[C@H]([C@H](C)C[C@@H]2CC[C@@H](O)[C@H](OC)C2)CC(=O)[C@H](C)/C=C(\C)[C@@H](OC(=O)Cc2ccc(N=[N+]=[N-])cc2)[C@@H](OC)C(=O)[C@H](C)C[C@H](C)/C=C/C=C/C=C/1C
pIC50 (T-cell): 8.24

CO[C@H]1C[C@@H]2CC[C@@H](C)[C@@](O)(O2)C(=O)C(=O)N2CCCC[C@H]2C(=O)O[C@H]([C@H](C)C[C@@H]2CC[C@@H](O)[C@H](OC)C2)CC(=O)[C@H](C)/C=C(\C)[C@@H](OC(=O)CCCCCCCNc2ccc(N=[N+]=[N-])cc2[N+](=O)[O-])[C@@H](OC)C(=O)[C@H](C)C[C@H](C)/C=C/C=C/C=C/1C
pIC50 (T-cell): 7.98

CO[C@H]1C[C@@H]2CC[C@@H](C)[C@@](O)(O2)C(=O)C(=O)N2CCCC[C@H]2C(=O)O[C@H]([C@H](C)C[C@@H]2CC[C@@H](OC(=O)CCCCCNc3ccc(N=[N+]=[N-])cc3[N+](=O)[O-])[C@H](OC)C2)CC(=O)[C@H](C)/C=C(\C)[C@@H](O)[C@@H](OC)C(=O)[C@H](C)C[C@H](C)/C=C/C=C/C=C/1C
pIC50 (T-cell): 8.60

CO[C@H]1C[C@@H]2CC[C@@H](C)[C@@](O)(O2)C(=O)C(=O)N2CCCC[C@H]2C(=O)O[C@H]([C@H](C)C[C@@H]2CC[C@@H](O)[C@H](OC)C2)CC(=O)[C@H](C)/C=C(\C)[C@@H](O)[C@@H](OC)C(=O)[C@H](C)C[C@H](C)/C=C/C=C/C=C/1C [SIROLIMUS]
pIC50 (T-cell): 8.01 | MST (Mus musculus): 12.01 days
